Experimental data published in US8618289B2 (Ambit Biosciences Corporation, priority 2008, dated 2013).
Structures can show the parent of a compound that is named as a salt. Where two headings read alike, the source gives them in different places.

What was measured:
[1] = tested on: MEK1 phosphorylation in the A375 human melanoma cell line; experiment: cells; settings: A-375, read-out: pMEK IC50
RAF kinases [2] = molecular target: T1, RAF kinases (Homo sapiens, UniProt P15056, V600E); experiment: biochemical
T1 sequence (P15056 whole entry V600E): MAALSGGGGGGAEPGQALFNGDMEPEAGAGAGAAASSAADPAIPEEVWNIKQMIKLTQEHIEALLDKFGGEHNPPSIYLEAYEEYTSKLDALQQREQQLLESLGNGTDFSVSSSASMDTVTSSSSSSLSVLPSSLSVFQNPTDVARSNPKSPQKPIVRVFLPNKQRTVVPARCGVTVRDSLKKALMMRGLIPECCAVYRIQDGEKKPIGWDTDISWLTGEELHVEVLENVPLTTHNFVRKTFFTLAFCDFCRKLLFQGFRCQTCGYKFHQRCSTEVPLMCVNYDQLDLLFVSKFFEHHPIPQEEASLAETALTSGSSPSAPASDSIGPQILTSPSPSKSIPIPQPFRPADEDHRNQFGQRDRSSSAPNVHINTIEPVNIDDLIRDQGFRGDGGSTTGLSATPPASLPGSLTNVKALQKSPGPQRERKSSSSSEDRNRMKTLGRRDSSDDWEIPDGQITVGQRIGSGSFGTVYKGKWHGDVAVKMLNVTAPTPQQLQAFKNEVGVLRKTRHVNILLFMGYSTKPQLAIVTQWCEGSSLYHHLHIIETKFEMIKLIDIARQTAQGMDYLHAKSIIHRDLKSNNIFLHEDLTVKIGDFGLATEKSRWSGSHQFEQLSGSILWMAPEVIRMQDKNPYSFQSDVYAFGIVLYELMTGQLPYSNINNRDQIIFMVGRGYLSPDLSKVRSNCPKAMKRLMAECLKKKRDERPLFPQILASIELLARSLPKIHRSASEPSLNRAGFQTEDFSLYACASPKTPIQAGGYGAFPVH

RAF kinases [3] = molecular target: RAF kinases (Homo sapiens, UniProt P15056); settings: read-out: BRAF WT Kd; BRAF WT
RAF kinases (Homo sapiens, UniProt P15056), sequence (P15056 whole entry): as the sequence (P15056 whole entry V600E) above, with E600V counted along it

RAF kinases [4] = molecular target: RAF kinases (Homo sapiens, UniProt P04049); settings: read-out: RAF1 Kd; RAF1
RAF kinases (Homo sapiens, UniProt P04049), sequence (P04049 whole entry): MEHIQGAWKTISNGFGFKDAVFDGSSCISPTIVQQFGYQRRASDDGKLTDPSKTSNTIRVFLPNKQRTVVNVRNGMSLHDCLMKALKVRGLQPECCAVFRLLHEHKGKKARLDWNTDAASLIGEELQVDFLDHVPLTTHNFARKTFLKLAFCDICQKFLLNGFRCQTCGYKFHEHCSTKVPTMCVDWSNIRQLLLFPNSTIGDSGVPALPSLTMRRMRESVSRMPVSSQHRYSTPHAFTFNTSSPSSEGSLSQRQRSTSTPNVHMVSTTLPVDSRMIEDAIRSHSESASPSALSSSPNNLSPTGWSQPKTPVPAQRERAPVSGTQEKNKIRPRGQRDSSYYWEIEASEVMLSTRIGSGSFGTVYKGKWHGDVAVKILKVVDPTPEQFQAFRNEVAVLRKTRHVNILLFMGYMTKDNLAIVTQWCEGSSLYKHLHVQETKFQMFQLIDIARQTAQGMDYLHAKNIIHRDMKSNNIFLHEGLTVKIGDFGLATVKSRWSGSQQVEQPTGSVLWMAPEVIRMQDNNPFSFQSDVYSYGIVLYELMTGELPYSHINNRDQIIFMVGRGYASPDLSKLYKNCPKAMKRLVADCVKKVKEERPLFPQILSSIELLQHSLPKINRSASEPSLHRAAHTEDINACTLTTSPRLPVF

A375 cells = experiment: cells; settings: Homo sapiens, A-375, read-out: A375 Viability EC50
RAF kinases [5] = molecular target: T1, RAF kinases; settings: read-out: BRAF V600E Kd; BRAF V600E

| SMILES | IC50 [1] [µM] | Kd (RAF kinases [2]) [µM] | Kd (RAF kinases [3]) [µM] | Kd (RAF kinases [4]) [µM] | EC50 (A375 cells) [µM] | Kd (RAF kinases [5]) [µM] |
| --- | --- | --- | --- | --- | --- | --- |
| COc1cc2ncnc(Sc3cccc(NC(=O)Nc4cc(C(C)(C)C)nn4-c4cccc(F)c4)c3)c2cc1OC [Ex 360, 1-(3-tert-butyl-1-(3-fluorophenyl)-1H-pyrazol-5-yl)-3-(3-(6,7-dimethoxyquinazolin-4-ylthio)phenyl)urea] | < 0.25 | 0.25 to 0.5 | > 1 | > 1 |  |  |
| COc1cc2ncnc(Sc3cccc(NC(=O)Nc4cc(C(C)(C)C)nn4-c4ccc(Cl)cc4)c3)c2cc1OC [Ex 366, 1-(3-tert-butyl-1-(4-chlorophenyl)-1H-pyrazol-5-yl)-3-(3-(6,7-dimethoxyquinazolin-4-ylthio)phenyl)urea] | < 0.25 | 0.25 to 0.5 | > 1 | > 1 |  |  |
| COc1cc2ncnc(Oc3cccc(NC(=O)Nc4cc(C(C)(C)C)nn4-c4ccc(C(F)(F)F)cc4)c3)c2cc1OC [Ex 373, 1-(3-tert-butyl-1-(4-(trifluoromethyl)phenyl)-1H-pyrazol-5-yl)-3-(3-(6,7-dimethoxyquinazolin-4-yloxy)phenyl)urea] | < 0.25 | 0.5 to 1 | > 1 | > 1 |  |  |
| COc1cc2ncnc(Oc3cccc(NC(=O)Nc4cc(C(C)(C)C)nn4-c4ccc(C)cc4C)c3)c2cc1OC [Ex 282, 1-(3-tert-butyl-1-(2,4-dimethylphenyl)-1H-pyrazol-5-yl)-3-(3-(6,7-dimethoxyquinazolin-4-yloxy)phenyl)urea] | < 0.25 | 0.5 to 1 | > 1 | > 1 |  |  |
| COc1cc2ncnc(Sc3cccc(NC(=O)Nc4cc(C(C)(C)C)nn4-c4cccc(C)c4)c3)c2cc1OC [Ex 286, 1-(3-tert-butyl-1-m-tolyl-1H-pyrazol-5-yl)-3-(3-(6,7-dimethoxyquinazolin-4-ylthio)phenyl)urea] | < 0.25 | 0.25 to 0.5 | > 1 | > 1 |  |  |
| COc1cc2ncnc(Oc3cc(NC(=O)Nc4cc(C(C)(C)C)nn4-c4ccc(C)cc4)c(F)cc3F)c2cc1OC [Ex 272, 1-(3-tert-butyl-1-p-tolyl-1H-pyrazol-5-yl)-3-(5-(6,7-dimethoxyquinazolin-4-yloxy)-2,4-difluorophenyl)urea] | < 0.25 | 0.5 to 1 | > 1 | > 1 |  |  |
| COc1cc2ncnc(Oc3ccc(F)c(NC(=O)Nc4cc(C(C)(C)C)nn4-c4ccccc4)c3)c2cc1OC [Ex 368, 1-(3-tert-butyl-1-phenyl-1H-pyrazol-5-yl)-3-(5-(6,7-dimethoxyquinazolin-4-yloxy)-2-fluorophenyl)urea] | < 0.25 | 0.5 to 1 | > 1 | > 1 |  |  |
| COc1cc2ncnc(Sc3cccc(NC(=O)Nc4cc(C5(C(F)(F)F)CC5)nn4-c4ccccc4)c3)c2cc1OC [Ex 383, 1-(3-(6,7-dimethoxyquinazolin-4-ylthio)phenyl)-3-(1-phenyl-3-(1-(trifluoromethyl)cyclopropyl)-1H-pyrazol-5-yl)urea] | < 0.25 | 0.25 to 0.5 | > 1 | > 1 |  |  |
| COc1cc2ncnc(Sc3cccc(NC(=O)Nc4cc(C(C)(C)C)nn4-c4ccccc4F)c3)c2cc1OC [Ex 371, 1-(3-tert-butyl-1-(2-fluorophenyl)-1H-pyrazol-5-yl)-3-(3-(6,7-dimethoxyquinazolin-4-ylthio)phenyl)urea] | < 0.25 | 0.25 to 0.5 | > 1 | > 1 |  |  |
| COc1cc2ncnc(Oc3cc(NC(=O)Nc4cc(C(C)(C)C)nn4-c4ccccc4)c(F)cc3F)c2cc1OC [Ex 273, 1-(3-tert-butyl-1-phenyl-1H-pyrazol-5-yl)-3-(5-(6,7-dimethoxyquinazolin-4-yloxy)-2,4-difluorophenyl)urea] | < 0.25 | 0.5 to 1 | > 1 | > 1 |  |  |
| CCOC(=O)Cn1nc(C(C)(C)C)cc1NC(=O)Nc1cccc(Oc2ncnc3cc(OCCOC)c(OC)cc23)c1 [Ex 224, ethyl 2-[3-tert-butyl-5-(3-{3-[6-methoxy-7-(2-methoxyethoxy)quinazolin-4-yloxy]phenyl}ureido)-1H-pyrazol-1-yl]acetate hydrochloride] | > 1 |  | > 1 | > 1 | > 1 | > 1 |
| COc1cc2ncnc(Oc3cccc(NC(=O)Nc4cc(C(C)(C)C)nn4-c4cccc(C(F)(F)F)c4)c3)c2cc1OC [Ex 379, 1-(3-tert-butyl-1-(3-(trifluoromethyl)phenyl)-1H-pyrazol-5-yl)-3-(3-(6,7-dimethoxyquinazolin-4-yloxy)phenyl)urea] | < 0.25 | 0.25 to 0.5 | > 1 | > 1 |  |  |
| COc1cc2ncnc(Sc3cccc(NC(=O)Nc4cc(C(C)(C)C(F)(F)F)no4)c3)c2cc1OC [Ex 268, 1-(3-(6,7-dimethoxyquinazolin-4-ylthio)phenyl)-3-(3-(1,1,1-trifluoro-2-methylpropan-2-yl)isoxazol-5-yl)urea] | < 0.25 |  | < 0.25 | < 0.25 | 0.5 to 1 | < 0.25 |

Results, then the compound that gave them:

| IC50 [1] [µM] | Kd (RAF kinases [2]) [µM] | Kd (RAF kinases [3]) [µM] | Kd (RAF kinases [4]) [µM] | EC50 (A375 cells) [µM] | Kd (RAF kinases [5]) [µM] | SMILES |
| --- | --- | --- | --- | --- | --- | --- |
| < 0.25 | 0.5 to 1 | > 1 | > 1 |  |  | COc1cc2ncnc(Oc3cccc(NC(=O)Nc4cc(C(C)(C)C)nn4-c4ccccc4C(F)(F)F)c3)c2cc1OC [Ex 376, 1-(3-tert-butyl-1-(2-(trifluoromethyl)phenyl)-1H-pyrazol-5-yl)-3-(3-(6,7-dimethoxyquinazolin-4-yloxy)phenyl)urea] |
| < 0.25 | 0.25 to 0.5 | > 1 | > 1 |  |  | COc1cc2ncnc(Oc3cccc(NC(=O)Nc4cc(C(C)(C)C)nn4-c4ccc(Cl)cc4)c3)c2cc1OC [Ex 365, 1-(3-tert-butyl-1-(4-chlorophenyl)-1H-pyrazol-5-yl)-3-(3-(6,7-dimethoxyquinazolin-4-yloxy)phenyl)urea] |
| < 0.25 | 0.25 to 0.5 | > 1 | > 1 |  |  | COc1cc2ncnc(Oc3cccc(NC(=O)Nc4cc(C(C)(C)C)nn4-c4ccc(C)cc4)c3)c2cc1OC [Ex 274, 1-(3-tert-butyl-1-p-tolyl-1H-pyrazol-5-yl)-3-(3-(6,7-dimethoxyquinazolin-4-yloxy)phenyl)urea] |
| < 0.25 | 0.5 to 1 | > 1 | > 1 |  |  | COc1ccc(-n2nc(C(C)(C)C)cc2NC(=O)Nc2cccc(Sc3ncnc4cc(OC)c(OC)cc34)c2)cc1 [Ex 362, 1-(3-tert-butyl-1-(4-methoxyphenyl)-1H-pyrazol-5-yl)-3-(3-(6,7-dimethoxyquinazolin-4-ylthio)phenyl)urea] |
| < 0.25 | 0.25 to 0.5 | > 1 | > 1 |  |  | COc1cc2ncnc(Oc3cccc(NC(=O)Nc4cc(C(C)(C)C)nn4-c4cccc(C)c4)c3)c2cc1OC [Ex 285, 1-(3-tert-butyl-1-m-tolyl-1H-pyrazol-5-yl)-3-(3-(6,7-dimethoxyquinazolin-4-yloxy)phenyl)urea] |
| < 0.25 | 0.5 to 1 | > 1 | > 1 |  |  | COCCOc1cc2ncnc(Sc3cccc(NC(=O)Nc4cc(C(C)(C)C)nn4-c4cccc(C)c4)c3)c2cc1OC [Ex 287, 1-(3-tert-butyl-1-m-tolyl-1H-pyrazol-5-yl)-3-(3-(6-methoxy-7-(2-methoxyethoxy)quinazolin-4-ylthio)phenyl)urea] |
| < 0.25 | 0.25 to 0.5 | > 1 | > 1 |  |  | COc1cc2ncnc(Oc3cccc(NC(=O)Nc4cc(C(C)(C)C)nn4-c4ccc(C)cc4)c3C)c2cc1OC [Ex 288, 1-(3-tert-butyl-1-p-tolyl-1H-pyrazol-5-yl)-3-(3-(6,7-dimethoxyquinazolin-4-yloxy)-2-methylphenyl)urea] |
| < 0.25 | 0.5 to 1 | > 1 | > 1 |  |  | COc1cc2ncnc(Sc3cccc(NC(=O)Nc4cc(C(C)(C)C)nn4-c4ccccc4C(F)(F)F)c3)c2cc1OC [Ex 375, 1-(3-tert-butyl-1-(2-(trifluoromethyl)phenyl)-1H-pyrazol-5-yl)-3-(3-(6,7-dimethoxyquinazolin-4-ylthio)phenyl)urea] |
| < 0.25 | 0.25 to 0.5 | > 1 | > 1 |  |  | COc1cc2ncnc(Sc3cccc(NC(=O)Nc4cc(C(C)(C)C)nn4-c4ccc(C)cc4)c3)c2cc1OC [Ex 275, 1-(3-tert-butyl-1-p-tolyl-1H-pyrazol-5-yl)-3-(3-(6,7-dimethoxyquinazolin-4-ylthio)phenyl)urea] |
| < 0.25 |  | > 1 | > 1 | 0.25 to 0.5 | > 1 | COc1cc2ncnc(Oc3ccc(Cl)c(NC(=O)Nc4cc(C(C)(C)C)nn4-c4ccccc4)c3)c2cc1OC [Ex 301, 1-(3-tert-butyl-1-phenyl-1H-pyrazol-5-yl)-3-(2-chloro-5-(6,7-dimethoxyquinazolin-4-yloxy)phenyl)urea] |
| 0.5 to 1 |  | < 0.25 | < 0.25 | > 1 | < 0.25 | COCCOc1cc2ncnc(Oc3cccc(NC(=O)Nc4cc(C(F)(F)F)nn4C)c3)c2cc1OC [Ex 220, 1-{3-[6-methoxy-7-(2-methoxyethoxy)quinazolin-4-yloxy]phenyl}-3-[1-methyl-3-(trifluoromethyl)-1H-pyrazol-5-yl]urea] |
| < 0.25 | 0.25 to 0.5 | > 1 | > 1 |  |  | COc1cc2ncnc(Sc3cccc(NC(=O)Nc4cc(C(C)(C)C)nn4-c4cccc(C(F)(F)F)c4)c3)c2cc1OC [Ex 380, 1-(3-tert-butyl-1-(3-(trifluoromethyl)phenyl)-1H-pyrazol-5-yl)-3-(3-(6,7-dimethoxyquinazolin-4-ylthio)phenyl) urea] |
